Measurements taken from ChEMBL document CHEMBL1201862, “PubChem BioAssay data set” (2004).
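Briefly, cells in 96-well plates were exposed to five compound concentrations for 48 h, and endpoints were estimated by linear interpolation. The concentration for 50% growth inhibition is given as GI50.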 Active and inactive are the calls of the source. Cut-off read from the data, not from the text of the source: active = GI50 up to about 1.1 µM and inactive = higher.

Key:
Assay in all cases: NCI tumour cell line growth inhibition, 48 h
[1] = tested on: HCT-116
[2] = tested on: SW-620
[3] = tested on: UO-31
[4] = tested on: SK-OV-3
[5] = tested on: KM12
[6] = tested on: SNB-78
[7] = tested on: KM-20L2
[8] = tested on: OVCAR-8
[9] = tested on: ACHN
[10] = tested on: RPMI-8226
[11] = tested on: CAKI-1
[12] = tested on: K562
[13] = tested on: M19-MEL
[14] = tested on: HCT-15
[15] = tested on: OVCAR-4
[16] = tested on: TK-10
[17] = tested on: SK-MEL-28
[18] = tested on: SR
[19] = tested on: OVCAR-3
[20] = tested on: U-251
[21] = tested on: 786-0
[22] = tested on: SK-MEL-2
[23] = tested on: MOLT-4
[24] = tested on: HOP-18
[25] = tested on: SNB-75
[26] = tested on: UACC-62
[27] = tested on: NCI-H460
[28] = tested on: HOP-92
[29] = tested on: NCI-H226
[30] = tested on: SF-295
[31] = tested on: EKVX
[32] = tested on: DMS-273
[33] = tested on: OVCAR-5
[34] = tested on: HCC 2998
[35] = tested on: HL-60
[36] = tested on: A549
[37] = tested on: LOX IMVI
[38] = tested on: SNB-19
[39] = tested on: HOP-62
[40] = tested on: CCRF-CEM
[41] = tested on: HT-29
[42] = tested on: M14
[43] = tested on: A498
[44] = tested on: UACC-257
[45] = tested on: RXF 631
[46] = tested on: SF-268
[47] = tested on: NCI-H23
[48] = tested on: Malme-3M
[49] = tested on: RXF 393
[50] = tested on: COLO 205
[51] = tested on: SF-539
[52] = tested on: NCI-H522
[53] = tested on: SK-MEL-5
[54] = tested on: SN12C
[55] = tested on: IGROV-1
[56] = tested on: LXFL 529
[57] = tested on: DMS-114

In the case of `Cc1cc2c(cc1C)[n+]([O-])c(C(=O)CC(=O)C(=O)Nc1ccccc1C)c(C)[n+]2[O-]`, the GI50 [1] is reported as > 100 µM (inactive), the GI50 [2] is reported as > 100 µM (inactive) and the GI50 [3] is reported as 96.6 µM (inactive). The GI50 [4] was > 100 µM (inactive), the GI50 [5] was > 100 µM (inactive) and the GI50 [6] was > 100 µM (inactive). The GI50 [7] was > 100 µM (inactive), the GI50 [8] was > 100 µM (inactive) and the GI50 [9] was > 100 µM (inactive). For the same molecule, the GI50 [10] was > 100 µM (inactive), the GI50 [11] was > 100 µM (inactive) and the GI50 [12] was > 100 µM (inactive). For the same molecule, the GI50 [13] was > 100 µM (inactive), the GI50 [14] was over 100 µM and the GI50 [15] was > 100 µM (inactive). The GI50 [16] was > 100 µM (inactive), the GI50 [17] was > 100 µM (inactive) and the GI50 [18] was 38 µM (inactive). The GI50 [19] was > 100 µM (inactive), the GI50 [20] was > 100 µM (inactive) and the GI50 [21] was > 100 µM (inactive). For the same molecule, the GI50 [22] was > 100 µM (inactive), the GI50 [23] was > 100 µM (inactive) and the GI50 [24] was 30.5 µM (inactive). For the same molecule, the GI50 [25] was > 100 µM (inactive), the GI50 [26] was > 100 µM (inactive) and the GI50 [27] was 80.5 µM (inactive). The GI50 [28] was > 100 µM (inactive), the GI50 [29] was > 100 µM (inactive) and the GI50 [30] was > 100 µM (inactive). The GI50 [31] was 33.8 µM (inactive), the GI50 [32] was > 100 µM (inactive) and the GI50 [33] was > 100 µM (inactive). For the same molecule, the GI50 [34] was > 100 µM (inactive), the GI50 [35] was 62.8 µM (inactive) and the GI50 [36] was 56.2 µM (inactive). The GI50 [37] was > 100 µM (inactive), the GI50 [38] was > 100 µM (inactive) and the GI50 [39] was > 100 µM (inactive). For the same molecule, the GI50 [40] was 40.7 µM (inactive), the GI50 [41] was > 100 µM (inactive) and the GI50 [42] was > 100 µM (inactive). For the same molecule, the GI50 [43] was > 100 µM (inactive), the GI50 [44] was > 100 µM (inactive) and the GI50 [45] was 32 µM (inactive). For the same molecule, the GI50 [46] was > 100 µM (inactive), the GI50 [47] was > 100 µM (inactive) and the GI50 [48] was > 100 µM (inactive). For the same molecule, the GI50 [49] was > 100 µM (inactive), the GI50 [50] was 46.5 µM (inactive) and the GI50 [51] was > 100 µM (inactive). The GI50 [52] was 54 µM (inactive), the GI50 [53] was > 100 µM (inactive) and the GI50 [54] was > 100 µM (inactive). The GI50 [55] was > 100 µM (inactive) and the GI50 [56] was 84.7 µM (inactive).

For `C=CC1C2=C(C(=O)NCC2)C2OC(O)C3=C(CCNC3=O)C2C1C` (configuration not stated), the GI50 [1] was > 100 µM (inactive), the GI50 [3] was > 100 µM (inactive) and the GI50 [4] was > 100 µM (inactive). For the same molecule, the GI50 [5] was > 100 µM (inactive), the GI50 [6] was > 100 µM (inactive) and the GI50 [9] was > 100 µM (inactive). For the same molecule, the GI50 [16] was > 100 µM (inactive), the GI50 [17] was > 100 µM (inactive) and the GI50 [18] was > 100 µM (inactive). The GI50 [20] was > 100 µM (inactive), the GI50 [23] was > 100 µM (inactive) and the GI50 [26] was > 100 µM (inactive). For the same molecule, the GI50 [28] was > 100 µM (inactive), the GI50 [31] was > 100 µM (inactive) and the GI50 [33] was > 100 µM (inactive). The GI50 [35] was > 100 µM (inactive), the GI50 [36] was > 100 µM (inactive) and the GI50 [38] was > 100 µM (inactive). The GI50 [40] was > 100 µM (inactive), the GI50 [57] was > 100 µM (inactive) and the GI50 [45] was > 100 µM (inactive). For the same molecule, the GI50 [46] was > 100 µM (inactive), the GI50 [47] was > 100 µM (inactive) and the GI50 [49] was > 100 µM (inactive). For the same molecule, the GI50 [52] was > 100 µM (inactive) and the GI50 [55] was > 100 µM (inactive).
